Source: patent US20250320228A1, “PYRIDO[3,2-D]PYRIMIDINES AS HPK1 INHIBITORS” (Merck Patent GmbH, priority 2022, published 2025)
Where a name gives a salt, the structure may show the parent alone.

Experiments:
[1] = target: full-length human HPK1 (MAP4K1) (Homo sapiens (Human), UniProt Q92918); assay: HPK1 kinase assay (biochemical, ADP-Glo); settings: GST-HPK1 3.2 nM, 10 μM ATP, MBP substrate, ADP-Glo; read-out: HPK1 enzymatic IC50
Summary of the method: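 GST-tagged full-length human HPK1 from Sf21 baculovirus cells (3.2 nM in enzyme mix; 50 mM HEPES pH 7.5, 10 mM MgCl2) was preincubated 15 min at RT with compound. Reaction was started with Start-Mix (10 μM ATP, 3.235 μM MBP) and run 120 min. ADP was read by ADP-Glo luminescence; IC50 came from 10-point % inhibition.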

HPK1 pSLP76 (Ser376) = assay: Cellular assay phospho-SLP-76 (Ser376); assay type: cell-based, human; settings: SLP76 Ser376 phosphorylation after αCD3/αCD28 stimulation; Jurkat (human) or EL-4 (mouse) cells, table does not say which; read-out: HPK1 pSLP76 IC50
Summary of the method: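 Jurkat (human) and EL-4 (mouse) cells preincubated 60 min with compound, then stimulated with αCD3/αCD28 Dynabeads at 37 °C (Jurkat 15 min; EL-4 30 min). SLP76 Ser376 phosphorylation in lysate read by AlphaLISA SureFire (Jurkat) or HTRF (EL-4, 19 h); IC50 from 10-point dilutions.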

Sequence of full-length human HPK1 (MAP4K1) (Q92918 whole entry): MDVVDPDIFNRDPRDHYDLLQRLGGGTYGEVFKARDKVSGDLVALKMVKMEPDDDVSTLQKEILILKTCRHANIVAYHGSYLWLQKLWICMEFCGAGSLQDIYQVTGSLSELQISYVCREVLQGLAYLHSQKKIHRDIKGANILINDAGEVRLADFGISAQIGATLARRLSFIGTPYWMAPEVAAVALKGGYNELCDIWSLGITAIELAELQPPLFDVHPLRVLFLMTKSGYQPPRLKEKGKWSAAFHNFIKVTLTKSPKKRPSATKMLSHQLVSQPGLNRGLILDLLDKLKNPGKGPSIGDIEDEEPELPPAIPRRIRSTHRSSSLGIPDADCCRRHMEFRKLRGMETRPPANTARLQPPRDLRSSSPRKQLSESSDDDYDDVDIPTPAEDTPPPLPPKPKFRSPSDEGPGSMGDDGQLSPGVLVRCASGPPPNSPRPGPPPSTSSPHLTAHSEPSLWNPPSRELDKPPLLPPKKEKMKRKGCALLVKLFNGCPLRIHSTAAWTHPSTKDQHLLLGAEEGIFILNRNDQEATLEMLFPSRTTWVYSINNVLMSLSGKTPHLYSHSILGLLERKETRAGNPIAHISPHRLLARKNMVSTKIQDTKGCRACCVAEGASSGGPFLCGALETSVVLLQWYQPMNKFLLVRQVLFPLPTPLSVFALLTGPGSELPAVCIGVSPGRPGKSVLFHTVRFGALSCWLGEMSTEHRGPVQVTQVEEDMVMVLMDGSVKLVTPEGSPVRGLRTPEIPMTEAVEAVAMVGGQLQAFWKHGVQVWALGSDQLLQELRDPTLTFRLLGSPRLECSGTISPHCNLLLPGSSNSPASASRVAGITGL

SMILES	IC50 [1]	IC50 (HPK1 pSLP76 (Ser376))
NC(=O)c1cc(-c2ccc(CN3CCO[C@H](C(F)(F)F)C3)cc2)nc2c(N[C@H]3CCCNC3)ncnc12 [Example 57, 4-[(3S)-piperidin-3-ylamino]-6-(4-[[(2S)-2(trifluoromethyl)morpholin-4-yl]methyl]phenyl) pyrido [3,2-d]pyrimidine-8-carboxamide]	< 0.1 µM	< 0.5 µM
COC(C)(C)COc1ccc(-c2cc(C(N)=O)c3ncnc(N[C@H]4CCCNC4)c3n2)cc1 [Example 61, 6-[4-(2-methoxy-2-methylpropoxy)phenyl]-4-[(3S)-piperidin-3-ylamino]pyrido[3,2-d]pyrimidine-8-carboxamide]	< 0.1 µM	< 0.5 µM
NC(=O)c1cc(-c2ccc(CN3CC4CC(C3)O4)cc2)nc2c(N[C@H]3CCCNC3)ncnc12 [Example 63, 6-(4-[6-oxa-3-azabicyclo [3.1.1]heptan-3-ylmethyl]phenyl)-4-[(3S)-piperidin-3-ylamino]pyrido[3,2-d]pyrimidine-8-carboxamide]	< 0.1 µM	< 0.5 µM
NC(=O)c1cc(-c2ccc(CN3C4COCC3COC4)cc2)nc2c(N[C@H]3CCCNC3)ncnc12 [Example 64, 6-(4-[3,7-dioxa-9-azabicyclo [3.3.1]nonan-9-ylmethyl]phenyl)-4-[(3S)-piperidin-3-ylamino]pyrido[3,2-d]pyrimidine-8-carboxamide]	< 0.1 µM	< 0.5 µM
NC(=O)c1cc(-c2ccc(CN3C4CCC3COC4)cc2)nc2c(N[C@H]3CCCNC3)ncnc12 [Example 66, 6-(4-[3-oxa-8-azabicyclo [3.2.1]octan-8-ylmethyl]phenyl)-4-[(3S)-piperidin-3-ylamino]pyrido[3,2-d]pyrimidine-8-carboxamide]	< 0.1 µM	< 0.5 µM
NC(=O)c1cc(-c2ccc(CN3C4COCC3C4)cc2)nc2c(N[C@H]3CCCNC3)ncnc12 [Example 67, 6-(4-[3-oxa-6-azabicyclo [3.1.1]heptan-6-ylmethyl]phenyl)-4-[(3S)-piperidin-3-ylamino]pyrido[3,2-d]pyrimidine-8-carboxamide]	< 0.1 µM	> 1 µM

The remaining lines, values ahead:

IC50 [1]	IC50 (HPK1 pSLP76 (Ser376))	SMILES
< 0.1 µM	< 0.5 µM	NC(=O)c1cc(-c2ccc(C3(O)CC3)cc2)nc2c(N[C@H]3CCCNC3)ncnc12 [Example 58, 6-[4-(1-hydroxycyclopropyl)phenyl]-4-[(3S)-piperidin-3-ylamino]pyrido[3,2-d]pyrimidine-8-carboxamide]
< 0.1 µM	< 0.5 µM	CN1CCN(c2ccc(-c3cc(C(N)=O)c4ncnc(N[C@H]5CCCNC5)c4n3)cn2)CC1 [Example 59, 6-[6-(4-methylpiperazin-1-yl)pyridin-3-yl]-4-[(3S)-piperidin-3-ylamino]pyrido[3,2-d]pyrimidine-8-carboxamide]
< 0.1 µM	< 0.5 µM	CC(C)(O)COc1ccc(-c2cc(C(N)=O)c3ncnc(N[C@H]4CCCNC4)c3n2)cc1 [Example 62, 6-[4-(2-hydroxy-2-methylpropoxy)phenyl]-4-[(3S)-piperidin-3-ylamino]pyrido[3,2-d]pyrimidine-8-carboxamide]
< 0.1 µM	< 0.5 µM	NC(=O)c1cc(-c2ccc(CN3CC4CCC(C3)O4)cc2)nc2c(N[C@H]3CCCNC3)ncnc12 [Example 65, 6-(4-[8-oxa-3-azabicyclo [3.2.1]octan-3-ylmethyl]phenyl)-4-[(3S)-piperidin-3-ylamino]pyrido[3,2-d]pyrimidine-8-carboxamide]
< 0.1 µM	0.5 to 1 µM	C[C@@H]1CN(Cc2ccc(-c3cc(C(N)=O)c4ncnc(N[C@H]5CCCNC5)c4n3)cc2)C[C@@H](C)O1 [Example 68, 6-(4-[[(2R,6R)-2,6-dimethylmorpholin-4-yl]methyl]phenyl)-4-[(3S)-piperidin-3-ylamino]pyrido[3,2-d]pyrimidine-8-carboxamide]
< 0.1 µM	> 1 µM	C[C@@H]1CN(Cc2ccc(-c3cc(C(N)=O)c4ncnc(N[C@H]5CCCNC5)c4n3)cc2)CCO1 [Example 69, 6-(4-[[(2R)-2-methylmorpholin-4-yl]methyl]phenyl)-4-[(3S)-piperidin-3-ylamino]pyrido[3,2-d]pyrimidine-8-carboxamide dihydrochloride]
